Assay [1] concerns Human cervical cancer cells (HeLa S3). Put plainly: Effect by combined use of drugs in cells (with docetaxel), WST-8 method. The assay is classed as cell-based. The note with it: HeLa S3, three days; for inhibition at 0.3 µM: compound 300 nM alone. How it is done: Fetal calf serum (FCS) was purchased from Moregate Biotech, DMEM medium from Invitrogen Corp., docetaxel (tradename: Taxere) from Sigma-Aldrich, Inc., and WST-8 from Kishida Chemical Co., Ltd.
(§1) Human cervical cancer cells (HeLa S3) were obtained from the American Type Culture Collection (ATCC).
Cells were suspended in a DMEM medium containing 10% FCS, and the cell suspension was dispensed to two 96-well plastic plates at a rate of 750 cells/100 microliters per well. The plates were incubated overnight in 5% CO2-95% air at 37° C. A drug was subjected to graded dilution in dimethylsulfoxide and further diluted with DMSO or with a DMEM medium containing 10% FCS and also containing 0.6 nM docetaxel. Then, the dilutions were each dispensed to one of the plates on which cells had been disseminated, at a rate of 100 microliters per well. The final concentration of docetaxel at this stage was 0.3 nM. Also, the concentrations in the case of sole administration of the compound according to the invention were 0.003, 0.01, 0.03, 0.1, 0.3, 1, 3 and 10 μM. The plates were incubated for further three days in 5% CO2-95% air at 37° C. Cell growth after incubation was measured by the WST-8 method (H. Tominaga, et al., Anal. Commun., 36, 47-50 (1999)). Here, the WST-8 method refers to a method in which 20 microliters of a WST-8 reagent solution is added to each well, incubation is conducted at 37° C. for 60 minutes, the plate is stirred, and the amount of formazan produced is measured by a colorimetric method to determine the inhibitory rate of the drug. The growth inhibitory effects of docetaxel and of the compound according to the invention were determined, with the value obtained in sole treatment of DMSO being defined as 0%.
In general terms: Tetrazolium assays rely on reduction of a dye to a coloured formazan, in cell work by metabolically active cells.

Assay [2] shares this test system. Put plainly: Cell growth inhibitory effect, WST-8 method. It is filed as cell-based. The note with it: 72 h, HeLa S3, three days incubation, read-out: Cell growth inhibitory effect (HeLaS3) (IC50). The procedure:
Fetal calf serum (FCS) was purchased from Moregate Biotech, and DMEM medium was purchased from Invitrogen Corp. WST-8 was purchased from Kishida Chemical Co., Ltd.
as §1
Cells were suspended in a DMEM medium containing 10% FCS, and the cell suspension was dispensed to a 96-well plastic plate at a rate of 750 cells/100 microliters per well. The plate was incubated overnight in 5% CO2-95% air at 37° C. A drug was subjected to graded dilution in dimethylsulfoxide and further diluted with a DMEM medium containing 10% FCS. Then, the dilution was dispensed to the plate on which cells had been disseminated, at a rate of 100 microliters per well. The plate was incubated for further three days in 5% CO2-95% air at 37° C. Cell growth after incubation was measured by the WST-8 method (H. Tominaga, et al., Anal. Commun., 36, 47-50 (1999)). Here, the WST-8 method refers to a method in which 20 microliters of a WST-8 reagent solution is added to each well, incubation is conducted at 37° C. for 60 minutes, the plate is stirred, and the amount of formazan produced is measured by a colorimetric method to determine the inhibitory rate of the drug. The concentration for 50% growth inhibition (IC50, μM) of the compound was determined.

Where [3] appears, read: Homo sapiens, HeLa S3, 72 h, read-out: Cell growth inhibitory effect by sole administration of the compound of Example (%).
The mark [4] stands for this setting: compound 300 nM + docetaxel 0.3 nM.

Structures can show the parent of a compound that is named as a salt.

One may read the IC50 as the concentration needed to halve the response being measured.

In the case of `Cl.O=C(c1cccc(Cl)c1F)N1CCC(O)(Cc2cccc(Nc3cc[nH]n3)n2)CC1` [Example 2, 1-(3-chloro-2-fluorobenzoyl)-4-((6-(1H-pyrazol-3-ylamino)pyridin-2-yl)methyl)piperidin-4-ol hydrochloride], the inhibition at 0.3 µM in assay [1] (setting [3]) turned out to be 23.9%. Moreover, the “Cell growth inhibitory effect by combined administration of docetaxel and the compound of Example (%)” value (“Cell growth inhibitory effect … (%)” for short) in assay [1] (setting [4]) was determined as 90.2%. In assay [2], the IC50 amounted to 780 nM.

With `O=c1[nH]nc(C2(Cc3cccc(Nc4cc[nH]n4)n3)CCN(S(=O)(=O)c3ccccc3C(F)(F)F)CC2)o1` [Example 14, 5-(4-((6-(1H-pyrazol-3-ylamino)pyridin-2-yl)methyl)-1-((2-(trifluoromethyl)phenyl)sulfonyl)piperidin-4-yl)-1,3,4-oxadiazol-2(3H)-one trifluoroacetate], the inhibition at 0.3 µM in assay [1] (setting [3]) was determined as 3.3%. For the same molecule, in assay [1] (setting [4]), the “Cell growth inhibitory effect … (%)” value is given as 80.7%. In assay [2], the 50% inhibitory concentration (IC50) came to 1730 nM.

Regarding `O=c1[nH]nc(C2(Cc3cccc(Nc4cc[nH]n4)n3)CCN(C(c3cccc(C(F)(F)F)c3)C(F)(F)F)CC2)o1` (stereo not drawn) [Example 19, 5-(4-((6-(1H-pyrazol-3-ylamino)pyridin-2-yl)methyl)-1-(2,2,2-trifluoro-1-(3-(trifluoromethyl)phenyl)ethyl)piperidin-4-yl)-1,3,4-oxadiazol-2(3H)-one trifluoroacetate], the inhibition at 0.1 µM in assay [1] (Homo sapiens, HeLa S3, 72 h, compound 100 nM alone, read-out: Cell growth inhibitory effect by sole administration of the compound of Example (%)) was found to be 7.6%. For the same molecule, in assay [1] (compound 100 nM + docetaxel 0.3 nM), the “Cell growth inhibitory effect … (%)” value is 86.0%. Also, the IC50 in assay [2] was 1010 nM.

The values are drawn from patent publication US8519136B2, “Aminopyridine derivatives having aurora a selective inhibitory action” (MSD K.K., priority 2008, dated 2013).
